Laboratory results as given in ChEMBL document CHEMBL1124842, “Cyclohexane diester analogues of phorbol ester as potential activators of protein kinase C” (J Med Chem, 1990).

Experiment: Inhibition of [3H]PDBu binding to murine brain PKC (protein kinase C)
Design: species or system Mus musculus

For `O=C(OC1CC[C@H](/C=C/CCO)CC1OC(=O)c1ccccc1)c1ccccc1` (some centres undefined), which IC50 is on record?
Its IC50 is greater than 1000 µM.

For `O=C(OC1CC[C@H](/C=C/CO)CC1OC(=O)c1ccccc1)c1ccccc1` (some centres undefined), which IC50 is on record?
The IC50 was greater than 1000 µM.

Which IC50 does the source give for `CCCCCCCC(=O)OC[C@H](CO)OC(=O)CCCCCCC` here?
Its IC50 is 5 µM.

For `CCCCCCCC(=O)OC1CC[C@H](/C=C/CCO)CC1OC(=O)CCCCCCC` (some centres undefined), which IC50 is on record?
Its IC50 is greater than 1000 µM.

Which IC50 does the source give for `O=C(OC1CC[C@H](CO)CC1OC(=O)c1ccccc1)c1ccccc1` (some centres undefined) here?
The IC50 was greater than 1000 µM.

With `CCCCCCCC(=O)OC1CC[C@H](/C=C/CO)CC1OC(=O)CCCCCCC` (some centres undefined) as the compound, how does the IC50 read?
The IC50 was greater than 1000 µM.

Which IC50 does the source give for `CCCCCCCC(=O)OC1CC[C@H](CO)CC1OC(=O)CCCCCCC` (stereo in doubt; 20a) here?
Its IC50 is greater than 1000 µM.

With `CCCCCCCC(=O)OC1CC[C@H](CO)CC1OC(=O)CCCCCCC` (stereo in doubt; 20b) as the compound, how does the IC50 read?
Its IC50 is 1000 µM.

For `CCCCCCCCCCCCCC(=O)O[C@@H]1[C@@H](C)[C@@]2(O)[C@@H](C=C(CO)C[C@]3(O)C(=O)C(C)=C[C@@H]23)[C@@H]2C(C)(C)[C@]12OC(C)=O` [PHORBOL MYRISTATE ACETATE], which IC50 is on record?
The IC50 was 0.01 µM.
